Experimental data taken from patent US20250248431A1, “AGENT FOR ENHANCING SALTINESS OR SUPRESSING OFF-FLAVOR” (AJINOMOTO CO., INC., priority 2022, published 2025).

Legend:
[1] = Test 9: sensory evaluation of saltiness intensity, meatballs; format: in vivo; conditions: effect if average score 1 point or more
Text: (§1) Meatballs were produced as evaluation samples by the following steps (1) to (6).
(§2) (1) Commercially available ground pork, sodium chloride (manufactured by Naikai Salt Industries Co., Ltd.), and potassium chloride (manufactured by Uji Pharmaceutical Co., Ltd.) were mixed in the ratios shown in Table 25 below, and the mixture was stirred in a stand mixer (“Kitchen Aid”, model: KSM5WH, manufactured by FMI Corporation) until the entire mixture was uniformly mixed. The speed scale of the stand mixer was set to “1”. (2) To the mixture obtained in the above-mentioned (1) were added finely chopped onion, water, salad oil (manufactured by J-OIL MILLS, INC.), potato starch (manufactured by Minami-Tokachi Rationalized Potato Starch Factory), and β-caryophyllene solution or β-caryophyllene oxide solution in the ratios shown in Table 25 below, and the mixture was stirred in the above-mentioned stand mixer (speed scale setting: 1) until the entire mixture was uniformly mixed. The β-caryophyllene solution was prepared by dissolving β-caryophyllene (manufactured by Sigma-Aldrich) in propylene glycol to a concentration of 1000 ppm by weight, and the β-caryophyllene oxide solution was prepared by dissolving β-caryophyllene oxide (manufactured by Penta Manufacturing Company) in propylene glycol to a concentration of 1000 ppm by weight. […]

[2] = Test 9: sensory evaluation of off-taste level, meatballs; format: in vivo; conditions: effect if average score 1 point or more
Text: as §1, §2

Compound: C=C1CC[C@H]2O[C@]2(C)CC[C@@H]2[C@@H]1CC2(C)C [β-caryophyllene oxide]
- saltiness enhancing effect [1]: can enhance the saltiness
- off-taste suppression effect [2]: suppress the off-taste of off-taste substances
